# Tests used:
# [1] = target: T1, human intelectin-1 (hIntL-1) (Homo sapiens, UniProt Q8WWA0); test: competitive inhibition of hIntL-1 binding to β-Galf
# Target sequence in this assay (Q8WWA0 19-298): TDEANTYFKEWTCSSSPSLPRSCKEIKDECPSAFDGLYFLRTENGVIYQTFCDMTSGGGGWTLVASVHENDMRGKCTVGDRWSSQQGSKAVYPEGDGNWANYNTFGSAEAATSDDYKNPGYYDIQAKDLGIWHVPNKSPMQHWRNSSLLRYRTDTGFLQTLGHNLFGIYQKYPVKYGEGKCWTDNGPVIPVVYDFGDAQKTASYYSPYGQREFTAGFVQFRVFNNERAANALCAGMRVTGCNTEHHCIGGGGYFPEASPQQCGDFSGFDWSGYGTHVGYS
# [2] = target: T1, human intelectin-1 (hIntL-1); test: ELISA-like assay on immobilized biotinylated carbohydrate; assay type: binding
# Target sequence in this assay (Q8WWA0 whole entry): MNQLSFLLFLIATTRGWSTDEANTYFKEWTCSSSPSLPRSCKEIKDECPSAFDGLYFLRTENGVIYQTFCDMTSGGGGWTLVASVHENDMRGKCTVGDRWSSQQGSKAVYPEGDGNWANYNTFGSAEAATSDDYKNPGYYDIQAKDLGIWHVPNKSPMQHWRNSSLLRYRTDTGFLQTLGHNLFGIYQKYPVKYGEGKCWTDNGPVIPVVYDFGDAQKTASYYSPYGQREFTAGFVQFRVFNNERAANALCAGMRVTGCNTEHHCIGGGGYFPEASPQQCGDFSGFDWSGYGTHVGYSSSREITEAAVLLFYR
Molecule,competitive inhibition of hIntL-1 binding to β-Galf [1],Kd [2]
O=P(O)(O)OCC(O)CO (centres unmarked) [glycerol-1-phosphate],glycerol and glycerol-1-phosphate— competitively inhibit the lectin from binding to β-Galf,–
"β-D-Galf (biotinylated, immobilized) [β-Galf]",–,0.085 ± 0.014 µM
